From patent US9452177B2, “Vitamin D compounds and methods for reducing ocular hypertension (OHT)” (Wisconsin Alumni Research Foundation, priority 2008, dated 2016)

What was measured:
[1] = tested on: genes known to be involved in the regulation of IOP; test: Rat intestine and mouse calvarial cell microarrays (gene expression)
Experimental: Vitamin D-deficient rats were given one bolus intravenous dose of 730 ng of 1,25-(OH)2D3/kg of body weight in ethanol or ethanol vehicle (control). Rats were anesthetized with isofluorane and decapitated 1, 3, 6, 10 and 24 h after injection of the dose or vehicle. There were three rats in each group for each time point. Blood was collected at the same time for determination of changes in serum calcium concentration. For each rat, the first 15 cm of intestine (duodenum) was removed, slit longitudinally and scraped with a glass slide. The mucosa was placed in a vial with GTC extraction buffer supplemented with 2% of β-mercaptoethanol (PolyATtract System 1000, Promega Corp., Madison, Wis.), homogenized at high speed with PowerGen 700 (Fisher Scientific, Pittsburgh, Pa.), flash frozen in liquid N2 and stored at −80° C. Experiments were done in duplicate.
For each time point, Poly(A+) RNA was isolated from pooled homogenized mucosa of three 1,25-(OH)2D3 or three vehicle treated rats. The mRNA was isolated using the PolyATtract System 1000 (Promega Corp., Madison, Wis.). The mRNA was purified using an RNeasy kit (Qiagen, Chatsworth, Calif.). The quality, integrity and quantity of the Poly(A+) RNA were determined by agarose gel electrophoresis, UV absorption spectrophotometry and the use of Agilent Bioanalyser 2100 (Agilent Technologies, Palo Alto, Calif.).
Primary fetal mouse calvarial cells were isolated and cultured in αMEM containing 10% FBS as described [Shevde, 2002]. Cells were plated in the 2×6-well plates (5×10^5 cells/well) and cultured with medium changes performed on days 1 and 4. On day 4 cells on 1 plate were treated with 1,25(OH)2D3 (10 nM final concentration). Second plate was used as the control. After 24 h of incubation with 1,25(OH)2D3, cells were harvested and total RNA was isolated with Trizol reagent (Invitrogen Life Technologies, Carlsbad, Calif.). The mRNA was further purified using an RNeasy kit (Qiagen, Chatsworth, Calif.). The quality, integrity and quantity of the total RNA were assessed by agarose gel electrophoresis and UV absorption spectrophotometry. Experiments were done in triplicates. […]
The hybridization reaction and the automated hybridization procedure were performed by the Gene Expression Center at the Biotechnology Center at the University of Wisconsin-Madison as described (Kutuzova, 2004). Each probe was tested on an Affymetrix Test3 Array and the quality of the cDNA and cRNA was determined by a 3′/5′ ratio of housekeeping genes within the array (ubiquitin, rat glyceraldehyde 3-phosphate dehydrogenase, β-actin, and hexokinase). […] Expression data were analyzed using the Affymetrix Microarrray Suite software version 5.0 (MAS 5.0). […]

[2] = Ocular inflammation by slit-lamp biomicroscopy; type: in vivo, cynomolgus monkeys (Macaca fascicularis); settings: Example 1; 5 topical treatments, 5 μg (2MD 6 μg)
Experimental: The intraocular pressure (IOP) was determined with a “minified” Goldmann applanation tonometer [Kaufman, 1980] using HALF AND HALF™ creamer solution (Borden) as the tear film indicator [Croft, 1997] with the monkey lying prone in a head holder and the eyes positioned 4 to 8 cm above the heart. All monkeys were examined by slit-lamp before the first IOP measurement in each protocol. For each eye, two or three IOP measurements were averaged as a baseline.
On the 3th day, prior to the 5th treatment, baseline IOP, biomicroscopy and MAP were determined. Preliminary studies indicated an effect was observed after these treatments but not after a single treatment. Following the 5th dose, IOP was measured at 1, 2, 3, 4, 5, 6, 7, 8, 12 (if possible), 24, and sometimes 48 hr. Biomicroscopy was done at 1, 3, 6, 24 and sometimes 48 hr. MAP on day 3 (some protocols) was determined at 1, 2, 3, 4, 5, 6, 7, 8, 24 and sometimes 48 hr if possible. Blood samples after the 5th treatment were collected at 6, 24, and sometimes 48 hr. For some protocols, IOP was also measured prior to each treatment; MAP was measured prior to the morning treatment; blood was collected prior to the afternoon treatment. Subsequent screening protocols will not include the MAP and blood collections and will only measure IOP at baseline and prior to and for 1-6 hr after the 5th treatment.
Baseline pretreatment IOP was determined by Goldmann applanation tonometry [Kaufman, 1980] with […] used as a tear film indicator [Croft, 1997]. Two baseline IOP measurements were taken 5 minutes apart. Monkeys were then treated topically with 5 μl of 1,25-dihydroxyvitamin D3 (1,25-(OH)2D3) (0.1-5 μg) to one eye and vehicle (propylene glycol) to the opposite eye twice a day for 5 treatments total. […] IOP was also measured prior to the afternoon treatment. On the third day, IOP was measured prior to the morning treatment. Following the fifth treatment, IOP was measured hourly for 8 hours and, in some cases, also at 12, 24, and 48 hours. […]

[3] = rat 730 ng/kg i.v., mouse calvarial cells 10 nM, 24 h

SMILES: C=C1/C(=C\C=C2/CCC[C@]3(C)[C@@H]([C@H](C)CCCC(C)(C)O)CC[C@@H]23)C[C@@H](O)C[C@@H]1O [1,25-(OH)2D3, 1α,25-dihydroxyvitamin D3]
- expression of vasoactive intestinal peptide, topoisomerase I, MMP2 ([1]; data not shown): decreased expression
- expression of ACTG2, ATP1A1, AQP1, CEACAM, FN1, CD44 and TIMP3 [1, 3]: Significantly down-regulated
- expression of PTGER4, MMP3, MMP11 and MMP13 [1, 3]: Significant increases
- mRNA expression for carbonic anhydrase I (CAI), angiotensin I converting enzyme (ACE) and actin alpha (ACTA1) [1, 3]: strong reductions
- ocular inflammation [2]: no ocular inflammation at any time-point
